# Laboratory results published in patent publication US11419921B2, “Methods of treating neurological disorders” (EnClear Therapies, Inc., priority 2018, dated 2022).
# Tested on: (GR)10
# Experiment: (GR)10 digestion with immobilized proteases (NHS-activated agarose resin) in PBS
# Assay type: biochemical
# Conditions: normalized
# Method: Protease solutions were prepared at 2 mg/mL in sterile PBS with calcium, magnesium and 200 μL ([…]) were applied to 100 μL of pre-washed NHS-activated agarose resin in 0.8 mL centrifuge columns. Reactions were left 1.5 hour at room temperature with end-to-end mixing, after which resins were washed with 12 resin volumes of PBS. Unreacted sites were blocked with 500 μL of 1M ethanolamine for 15 minutes at room temperature and resins were further washed with 24 resin volumes. Resins were stored at 4 degrees in 500 μL of PBS containing 0.05% sodium azide as preservative.
# 110 μL of 50 μM (GR)10 dipeptide repeats prepared in PBS were added to each immobilized protease and incubated 5 minutes at room temperature with end-to-end mixing. Columns were spun down 1 minute at 1,000 Xg to recover digested GR dipeptides. Columns were washed with 110 μL of PBS to increase (GR)10 recovery. This procedure was repeated with 60 minutes digestion time. 100 μL of each samples were transferred to a new tube and 5 μL of 10% TFA followed by 300 μL of Dilution Solution were added. The reaction mixtures were analyzed by LC/MS to determine the concentration of GR repeats of different lengths.
# [1] = resin wash from 60 min reaction
substance,measurement,setting,value
Elastase: protease that cleaves at the carboxyl side of small hydrophobic amino acids; in Table 22 also immobilized on agarose resin,(GR)1,Immobilized - 5 min reaction,33.1 µM
same,(GR)2,Immobilized - 5 min reaction,4.8 µM
same,(GR)3,Immobilized - 5 min reaction,0.0 µM
same,(GR)4,Immobilized - 5 min reaction,0.0 µM
same,(GR)5,Immobilized - 5 min reaction,0.0 µM
same,(GR)6,Immobilized - 5 min reaction,0.0 µM
same,(GR)8,Immobilized - 5 min reaction,0.0 µM
same,(GR)10,Immobilized - 5 min reaction,0.0 µM
same,(GR)1,immobilized - 60 min reaction,48.1 µM
same,(GR)2,immobilized - 60 min reaction,0.0 µM
same,(GR)3,immobilized - 60 min reaction,0.0 µM
same,(GR)4,immobilized - 60 min reaction,0.0 µM
same,(GR)5,immobilized - 60 min reaction,0.0 µM
same,(GR)6,immobilized - 60 min reaction,0.0 µM
same,(GR)8,immobilized - 60 min reaction,0.0 µM
same,(GR)10,immobilized - 60 min reaction,0.0 µM
same,(GR)1,resin wash from 5 min reaction,13.8 µM
same,(GR)2,resin wash from 5 min reaction,0.0 µM
same,(GR)3,resin wash from 5 min reaction,0.0 µM
same,(GR)4,resin wash from 5 min reaction,0.0 µM
same,(GR)5,resin wash from 5 min reaction,0.0 µM
same,(GR)6,resin wash from 5 min reaction,0.0 µM
same,(GR)8,resin wash from 5 min reaction,0.0 µM
same,(GR)10,resin wash from 5 min reaction,0.0 µM
same,(GR)1,[1],18.5 µM
same,(GR)2,[1],0.0 µM
same,(GR)3,[1],0.0 µM
same,(GR)4,[1],0.0 µM
same,(GR)5,[1],0.0 µM
same,(GR)6,[1],0.0 µM
same,(GR)8,[1],0.0 µM
same,(GR)10,[1],0.0 µM
